Source: ChEMBL document CHEMBL1139568, “Carbonic anhydrase inhibitors. Inhibition of cytosolic/tumor-associated carbonic anhydrase isozymes I, II, IX, and XII with Schiff's bases incorporating chromone and aromatic sulfonamide moieties, and their zinc complexes” (Bioorg Med Chem Lett, 2005)

Key:
Carbonic anhydrase 9 = Carbonic anhydrase 9 (Homo sapiens, UniProt Q16790)
Description: Inhibition constant against human carbonic anhydrase IX

Carbonic anhydrase 2 = Carbonic anhydrase 2 (Homo sapiens, UniProt P00918)
Description: Inhibition constant against human carbonic anhydrase II

Carbonic anhydrase 1 = Carbonic anhydrase 1 (Homo sapiens, UniProt P00915)
Carbonic anhydrase 1, sequence (P00915 whole entry): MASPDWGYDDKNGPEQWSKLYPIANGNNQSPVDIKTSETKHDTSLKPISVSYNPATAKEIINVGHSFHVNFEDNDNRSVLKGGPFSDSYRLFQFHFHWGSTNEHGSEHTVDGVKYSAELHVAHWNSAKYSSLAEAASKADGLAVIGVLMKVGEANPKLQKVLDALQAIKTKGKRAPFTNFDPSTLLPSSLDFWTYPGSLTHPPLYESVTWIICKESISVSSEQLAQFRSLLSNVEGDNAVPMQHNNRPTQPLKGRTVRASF
Description: Inhibition constant against human carbonic anhydrase I

Carbonic anhydrase 12 = Carbonic anhydrase 12 (Homo sapiens, UniProt O43570)
Carbonic anhydrase 12, sequence (O43570 whole entry): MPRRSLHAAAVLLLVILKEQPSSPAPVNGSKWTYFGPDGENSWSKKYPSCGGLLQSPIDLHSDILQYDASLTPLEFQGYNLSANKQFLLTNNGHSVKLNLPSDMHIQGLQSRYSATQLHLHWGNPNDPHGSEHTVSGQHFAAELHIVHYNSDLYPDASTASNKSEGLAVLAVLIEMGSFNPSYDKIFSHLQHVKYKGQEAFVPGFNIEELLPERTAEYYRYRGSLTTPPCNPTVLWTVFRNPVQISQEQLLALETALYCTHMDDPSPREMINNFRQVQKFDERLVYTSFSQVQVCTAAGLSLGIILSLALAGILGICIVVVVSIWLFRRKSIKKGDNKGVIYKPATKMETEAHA
Description: Inhibition constant against human carbonic anhydrase XII

[1] = tested as the Zn salt or complex

Row | Ki (Carbonic anhydrase 9; [1]) [nM] | Ki (Carbonic anhydrase 9) [nM] | Compound | also measured
1 | 12 |  | Cc1ccc2occ(CNCCc3ccc(S(N)(=O)=O)cc3)c(=O)c2c1 | 
2 |  | 37 | Cc1ccc2occ(/C=N/CCc3ccc(S(N)(=O)=O)cc3)c(=O)c2c1 [listing 1 of 2 here] | 
3 | 8.1 |  | NS(=O)(=O)c1ccc(CNCc2coc3ccccc3c2=O)cc1 | 
4 | 14 |  | Cc1ccc2occ(CNCc3ccc(S(N)(=O)=O)cc3)c(=O)c2c1 | 
5 | 6.8 |  | Cc1ccc2occ(/C=N/c3ccc(S(N)(=O)=O)cc3)c(=O)c2c1 [listing 2 of 2 here] | 
6 | 15 |  | Cc1ccc2occ(CNc3ccc(S(N)(=O)=O)cc3)c(=O)c2c1 | 
7 | 7.3 |  | NS(=O)(=O)c1ccc(CCNCc2coc3ccccc3c2=O)cc1 | 
8 | 8.2 |  | Cc1ccc2occ(/C=N/CCc3ccc(S(N)(=O)=O)cc3)c(=O)c2c1 [listing 2 of 2 here] | 

Second part, the compound before the results:

Row | Compound | Ki (Carbonic anhydrase 9; [1]) [nM] | Ki (Carbonic anhydrase 9) [nM] | also measured
9 | N=C(N)NS(=O)(=O)c1ccc(/N=C/c2coc3ccccc3c2=O)cc1 |  | > 1000 | Ki (Carbonic anhydrase 2): > 1000 nM; Ki (Carbonic anhydrase 1): > 1000 nM; Ki (Carbonic anhydrase 12): > 1000 nM
10 | Cc1ccc2occ(/C=N/c3cc(C(F)(F)F)c(S(N)(=O)=O)cc3S(N)(=O)=O)c(=O)c2c1 |  | 32 | 
11 | Cc1ccc2occ(/C=N/c3ccc(S(=O)(=O)N=C(N)N)cc3)c(=O)c2c1 |  | > 1000 | Ki (Carbonic anhydrase 2): > 1000 nM; Ki (Carbonic anhydrase 1): > 1000 nM; Ki (Carbonic anhydrase 12): > 1000 nM
12 | NS(=O)(=O)c1ccc(C/N=C/c2coc3ccccc3c2=O)cc1 (stereo in doubt; 21) | 6.3 |  | 
13 | NS(=O)(=O)c1ccc(CC/N=C/c2coc3ccccc3c2=O)cc1 |  | 26 | 
14 | Cc1ccc2occ(/C=N/c3ccc(S(N)(=O)=O)cc3)c(=O)c2c1 [listing 1 of 2 here] |  | 48 | 
15 | NS(=O)(=O)c1ccc(C/N=C/c2coc3ccccc3c2=O)cc1 (stereo in doubt; 20) | > 1000 |  | 
16 | NS(=O)(=O)c1ccc(C/N=C/c2coc3ccccc3c2=O)cc1 |  | 32 | 
17 | NS(=O)(=O)c1ccc(NCc2coc3ccccc3c2=O)cc1 | 10 |  | 
